Assay [1] is described as follows: Displacement of [125I]-1DMe from NPFF receptor in Sprague-Dawley rat dorsal horn of spinal cord incubated for 150 mins by autoradiography. Format: tissue-based. (In general: Displacement assays read how much labelled ligand stays bound in the presence of the test substance.)
Assay [2] is described as follows: Binding affinity to NPFFR in rat spinal cord. The format is tissue-based.
Assay [3] has as its target T1, Neuropeptide FF receptor 1 (Homo sapiens, UniProt Q9GZQ6). As to the kind of experiment: Agonist activity at NPFFR1 (unknown origin) expressed in mouse NIH3T3 cells by receptor selection and amplification technology assay relative to control. The format is cell-based.
Assay [4] concerns the target T2, Neuropeptide FF receptor 2 (Homo sapiens, UniProt Q9Y5X5). Briefly: Antagonist activity at human NPFFR2 expressed in CHO-RD-HGA16 cells assessed as reduction in NPFF-induced calcium influx by measuring apparent dissociation constant Ke preincubated for 15 mins followed by NPFF addition by calcium-5 dye based fluorescence method. Format: functional, cell-based. The settings on record: CHO/Galpha16, filed as antagonist.

The target in assay [5] is T1, Neuropeptide FF receptor 1. Briefly: Antagonist activity at human NPFFR1 expressed in CHO-K1 cells assessed as apparent dissociation constant Ke by Eu-cAMP tracer based TR-FRET assay. Format: functional, cell-based. The settings on record: filed as antagonist.
Assay [6] has as its target T2, Neuropeptide FF receptor 2. As to the kind of experiment: Displacement of [125I]NPFF from human NPFFR2 expressed in CHO cell membranes incubated for 120 mins by scintillation/luminescence counting method. Further details: species or system Membrane.
The target of assay [7] is T2, Neuropeptide FF receptor 2. Briefly: Antagonist activity at human NPFFR2 expressed in CHO-K1 cells assessed as apparent dissociation constant Ke by Eu-cAMP tracer based TR-FRET assay. Conditions: filed as antagonist. The format is functional, cell-based. For orientation: Time-resolved FRET reads energy transfer from a long-lived donor to a nearby acceptor.
Assay [8] concerns the target T1, Neuropeptide FF receptor 1. Briefly: Displacement of [125I]NPFF from human NPFFR1 expressed in CHO cell membranes incubated for 120 mins by scintillation/luminescence counting method. On the set-up: species or system Membrane.
Assay [9] addresses T1, Neuropeptide FF receptor 1. Briefly: Antagonist activity at human NPFFR1 expressed in CHO-RD-HGA16 cells assessed as reduction in NPFF-induced calcium influx by measuring apparent dissociation constant Ke preincubated for 15 mins followed by NPFF addition by calcium-5 dye based fluorescence method. Format: functional, cell-based. Conditions: CHO/Galpha16, filed as antagonist.

Assay [10] concerns Mus musculus. As to the kind of experiment: Reversal of morphine-induced analgesia in icv dosed CDF1 mouse assessed as minimum effective dose measured after 15 mins by tail-flick test. The format is functional. The settings on record: 0.25 h. (In general: Hot-plate and tail-flick tests time the reaction to a heat stimulus.)
Assay [11] concerns the target T2, Neuropeptide FF receptor 2. Briefly: Agonist activity at human NPFFR2 expressed in CHO cells assessed as inhibition of forskolin-induced intracellular cAMP production incubated for 5 hrs by firefly/renilla luciferase reporter assay. Format: functional, cell-based.
For assay [12], the target named is T2, Neuropeptide FF receptor 2. As to the kind of experiment: Displacement of TAMRA-NPFF from human NPFFR2 expressed in CHO-K1 cells preincubated for 15 mins followed by GTPgammaS addition and measured after 15 to 120 mins by competitive binding assay. The format is cell-based.
In assay [13] the target is T3, Pyroglutamylated RF-amide peptide receptor (Homo sapiens, UniProt Q96P65).
T3 sequence (Q96P65 whole entry): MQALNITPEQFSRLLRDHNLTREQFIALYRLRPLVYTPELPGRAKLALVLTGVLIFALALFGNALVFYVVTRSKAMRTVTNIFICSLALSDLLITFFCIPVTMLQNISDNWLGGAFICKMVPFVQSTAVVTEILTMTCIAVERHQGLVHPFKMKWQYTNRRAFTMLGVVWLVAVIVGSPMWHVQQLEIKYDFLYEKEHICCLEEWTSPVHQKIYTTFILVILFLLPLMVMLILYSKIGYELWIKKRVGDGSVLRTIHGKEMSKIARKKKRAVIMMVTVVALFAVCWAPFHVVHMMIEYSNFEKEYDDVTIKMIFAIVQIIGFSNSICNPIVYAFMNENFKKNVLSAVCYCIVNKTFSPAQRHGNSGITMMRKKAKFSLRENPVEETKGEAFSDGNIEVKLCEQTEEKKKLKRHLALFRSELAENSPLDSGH
Briefly: Displacement of [125I]-43RFa from human QRFP receptor expressed in CHO cell membrane by TopCount scintillation counter method. The format is cell membranes.

Assay [14] deals with T4, Prolactin-releasing peptide receptor (Homo sapiens, UniProt P49683).
T4 sequence (P49683 whole entry): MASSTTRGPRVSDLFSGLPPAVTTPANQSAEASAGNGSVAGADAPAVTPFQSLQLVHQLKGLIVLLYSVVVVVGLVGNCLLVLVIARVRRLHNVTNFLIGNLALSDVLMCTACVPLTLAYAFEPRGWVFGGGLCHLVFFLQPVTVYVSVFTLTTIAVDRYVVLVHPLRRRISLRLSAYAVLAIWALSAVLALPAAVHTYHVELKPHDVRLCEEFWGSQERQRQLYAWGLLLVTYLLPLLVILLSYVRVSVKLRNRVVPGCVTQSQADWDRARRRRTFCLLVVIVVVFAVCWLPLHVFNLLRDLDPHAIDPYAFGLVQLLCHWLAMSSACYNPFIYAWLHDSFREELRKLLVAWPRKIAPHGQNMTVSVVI
Briefly: Displacement of [3H]-PrRP-20 from human PrRP receptor expressed in CHO cell membrane by TopCount scintillation counter method. The format is cell membranes.

The target of assay [15] is KiSS-1 receptor (Homo sapiens, UniProt Q969F8). As to the kind of experiment: Displacement of [125I]-Kp-10 from human KISS1R expressed in CHO cell membrane by TopCount scintillation counter method. Format: cell membranes.
KiSS-1 receptor, sequence (Q969F8 whole entry): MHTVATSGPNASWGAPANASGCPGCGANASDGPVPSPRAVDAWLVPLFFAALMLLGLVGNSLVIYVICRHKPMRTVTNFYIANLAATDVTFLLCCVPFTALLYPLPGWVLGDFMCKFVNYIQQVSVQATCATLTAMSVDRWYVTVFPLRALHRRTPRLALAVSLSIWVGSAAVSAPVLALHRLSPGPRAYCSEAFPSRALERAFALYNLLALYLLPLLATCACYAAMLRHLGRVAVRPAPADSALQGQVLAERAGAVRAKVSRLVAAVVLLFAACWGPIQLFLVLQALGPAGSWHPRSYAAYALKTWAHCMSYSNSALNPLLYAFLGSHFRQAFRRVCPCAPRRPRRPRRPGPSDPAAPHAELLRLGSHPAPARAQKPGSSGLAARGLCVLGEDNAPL
In assay [16] the target is T2, Neuropeptide FF receptor 2. Briefly: Displacement of [125I]EYF from human NPFFR2 expressed in CHO cells by gamma-counter method. Format: cell-based.
Assay [17] concerns the target T2, Neuropeptide FF receptor 2. Conditions: COS-1, filed as antagonist, dose 7.5 µM, time 30.0 min.

Data on ten compounds can be found in ChEMBL document CHEMBL4765381, “Neuropeptide FF and Its Receptors: Therapeutic Applications and Ligand Development” (J Med Chem, 2020).

Each structure is given as a SMILES string. Peptide text beside a SMILES is read from it. * marks the point of attachment. Desaminotyrosyl = O=C(CCc1ccc(O)cc1)*

T2 sequence (Q9Y5X5 whole entry): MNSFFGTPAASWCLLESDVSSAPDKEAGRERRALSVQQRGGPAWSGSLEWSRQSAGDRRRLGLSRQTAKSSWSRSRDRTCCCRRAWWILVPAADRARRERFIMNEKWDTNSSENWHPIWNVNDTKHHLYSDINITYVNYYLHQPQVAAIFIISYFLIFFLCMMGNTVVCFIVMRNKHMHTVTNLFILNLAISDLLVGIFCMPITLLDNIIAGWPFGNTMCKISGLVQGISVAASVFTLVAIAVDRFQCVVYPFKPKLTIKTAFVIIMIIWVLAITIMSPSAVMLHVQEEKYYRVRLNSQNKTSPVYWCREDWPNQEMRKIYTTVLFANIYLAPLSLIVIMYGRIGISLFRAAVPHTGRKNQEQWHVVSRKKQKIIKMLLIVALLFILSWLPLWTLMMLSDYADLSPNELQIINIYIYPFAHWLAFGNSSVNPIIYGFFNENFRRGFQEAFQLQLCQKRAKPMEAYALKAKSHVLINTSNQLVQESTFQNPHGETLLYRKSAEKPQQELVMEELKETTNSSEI
T1 sequence (Q9GZQ6 whole entry): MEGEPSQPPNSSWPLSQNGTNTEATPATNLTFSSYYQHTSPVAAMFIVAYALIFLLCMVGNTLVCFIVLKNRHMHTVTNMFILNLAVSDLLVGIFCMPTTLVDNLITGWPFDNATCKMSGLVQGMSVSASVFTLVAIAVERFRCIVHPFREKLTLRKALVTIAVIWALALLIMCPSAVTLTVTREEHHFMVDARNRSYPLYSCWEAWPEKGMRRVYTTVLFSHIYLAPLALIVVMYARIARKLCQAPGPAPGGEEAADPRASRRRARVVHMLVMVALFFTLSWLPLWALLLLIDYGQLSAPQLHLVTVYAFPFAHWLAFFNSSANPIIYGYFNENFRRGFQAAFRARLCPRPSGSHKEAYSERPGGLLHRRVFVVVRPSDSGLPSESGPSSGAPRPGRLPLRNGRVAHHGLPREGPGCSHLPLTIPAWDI

Usually Ki stands for a dissociation constant, usually derived from enzyme kinetics or from competition with a known ligand. A high value points to weaker binding. In turn, `NC(=O)CC[C@H](NC(=O)[C@@H]1CCCN1)C(=O)N[C@@H](CCCN=C(N)N)C(=O)N[C@@H](Cc1ccccc1)C(N)=O` returned a Ki in assay [1] of 15.5 nM.
In the case of `CC(C)C[C@H](NC(=O)[C@H](Cc1ccccc1)NC(=O)CCc1ccc(O)cc1)C(=O)N[C@@H](Cc1ccccc1)C(=O)N[C@@H](CCC(N)=O)C(=O)N1CCC[C@H]1C(=O)N[C@@H](CCC(N)=O)C(=O)N[C@@H](CCCN=C(N)N)C(N)=O` (Desaminotyrosyl-FLFQPQR-NH2), the Ki in assay [2] was 0.2 nM.
In turn, `N=C(N)N/N=C/c1ccc(Cl)c(Cl)c1` returned an Efficacy in assay [3] of 12%.
As to `CCCCCOC(=O)[C@@H]1C[C@H](NCc2ccc(OC)cc2)CN1Cc1ccccc1Cl`, the Ke in assay [4] is 3.09 µM; in [5] it was 0.36 µM; in assay [7], 2.15 µM; in [9] it was 0.85 µM. The inhibition constant (Ki) came out at 1440 nM in assay [6] and 890 nM in assay [8].
The compound `CC(C)C[C@H](NC(=O)[C@@H](N)Cc1ccccc1)C(=O)N[C@@H](Cc1ccccc1)C(=O)N[C@@H](CCC(N)=O)C(=O)N1CCC[C@H]1C(=O)N[C@@H](CCC(N)=O)C(=O)N[C@@H](CCCN=C(N)N)C(=O)N[C@@H](Cc1ccccc1)C(N)=O` showed a Ki in [1] of 0.34 nM. Besides, the MEC in assay [10] came to 22 nmol.
Broadly, the EC50 is the concentration that produces a half-maximal response. Turning to `COc1cc2c(c(OC)c1OC)-c1c(cc3c(c1OC)CC3)[C@@H](C(=O)Oc1ccccc1)[C@@](C)(O)[C@@H](C)C2`, the EC50 in assay [11] was found to be 2220 nM. Further, in assay [12], the affinity, expressed as Ki, was 2.17 nM.
As to `NC(N)=N/N=C/c1ccc(Cl)c(Cl)c1`, the Ki in [13], in assay [14] and in assay [15] was > 5000 nM each time.
Take `CC(C)C[C@H](NC(=O)[C@H](CC(N)=O)NC(=O)[C@@H]1CCCN1C(=O)[C@@H](N)C(C)C)C(=O)N1CCC[C@H]1C(=O)N[C@@H](CCC(N)=O)C(=O)N[C@@H](CCCNC(=N)N)C(=O)N[C@@H](Cc1ccccc1)C(N)=O`: the Ki in [16] was found to be 23 nM.
On to `COc1ccc(CN[C@H]2C[C@@H](C(=O)OCCc3ccc([N+](=O)[O-])cc3)N(Cc3ccccc3Cl)C2)cc1`, for which the Ke in assay [4] stood at 0.69 µM; in assay [5], 0.49 µM; in [7] it was 1.17 µM; in [9], 0.25 µM. Also, the Ki in [6] was found to be 1670 nM; in [8] it was 610 nM.
Compound `N=C(N)NCCC[C@H](NC(=O)C12CC3CC(CC(C3)C1)C2)C(=O)N[C@@H](Cc1ccccc1)C(N)=O` had a Ke in assay [17] of 45 nM.
